{
  "source": "paper PMC4981696",
  "about": "“Non-target Site Tolerance Mechanisms Describe Tolerance to Glyphosate in Avena sterilis” (Frontiers in Plant Science, 2016)",
  "assay_in_all_cases": "phosphate release assay (EnzChek phosphate kit)",
  "details_in_all_cases": "partially purified leaf extract; 100 mM MOPS, 1 mM MgCl2, 10% glycerol, 2 mM sodium molybdate, 200 mM NaF; glyphosate 0-1000 μM; range is 95% CI; read-out: I50(μM)(95% CI)^a",
  "key": {"[1]": {"test_system": "T1, EPSPS (A. sterilis UE accession)", "T1 construct": "homeologous copies not distinguished", "assay_type": "biochemical, Avena sterilis", "excerpt": "phosphate release assay (EnzChek phosphate kit) on EPSPS (A. sterilis UE accession)"}, "[2]": {"biological_target": "T2, EPSPS (L. rigidum S population) (Lolium rigidum, UniProt A0A5B9T5S8)", "T2 sequence (A0A5B9T5S8 61-505)": "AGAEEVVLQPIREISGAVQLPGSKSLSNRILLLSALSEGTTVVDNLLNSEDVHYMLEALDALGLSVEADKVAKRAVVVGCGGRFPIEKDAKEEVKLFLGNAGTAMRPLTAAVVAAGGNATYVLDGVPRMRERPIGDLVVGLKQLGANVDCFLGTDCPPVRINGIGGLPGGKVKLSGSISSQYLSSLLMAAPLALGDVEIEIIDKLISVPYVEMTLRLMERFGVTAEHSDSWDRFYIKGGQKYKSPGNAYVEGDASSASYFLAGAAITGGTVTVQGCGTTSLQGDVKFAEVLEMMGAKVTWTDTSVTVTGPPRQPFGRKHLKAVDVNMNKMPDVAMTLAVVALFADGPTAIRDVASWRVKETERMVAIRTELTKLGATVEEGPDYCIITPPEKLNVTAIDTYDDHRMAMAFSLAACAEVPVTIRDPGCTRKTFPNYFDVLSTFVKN", "assay_type": "biochemical", "excerpt": "phosphate release assay (EnzChek phosphate kit) on EPSPS (L. rigidum S population)"}, "[3]": {"test_system": "T3, EPSPS (A. sterilis E accession)", "T3 construct": "homeologous copies not distinguished", "assay_type": "biochemical, Avena sterilis", "excerpt": "phosphate release assay (EnzChek phosphate kit) on EPSPS (A. sterilis E accession)"}},
  "data": [
    {"smiles": "O=C(O)CNCP(=O)(O)O", "note": "[glyphosate]", "values": [
      {"measurement": "IC50", "setting": "[1]", "value": 42.4, "unit": "µM"},
      {"measurement": "IC50", "setting": "[2]", "value": 5.1, "unit": "µM"},
      {"measurement": "IC50", "setting": "[3]", "value": 53.5, "unit": "µM"}
    ]}
  ]
}
